Consider five compounds from patent EP0912518B1, “SUBSTITUTED PYRIDINES AS SELECTIVE CYCLOOXYGENASE-2 INHIBITORS” (Merck Frosst Canada & Co., priority 1996, dated 1998).

Structures are written as SMILES. Where only a bound is given, the exact number is not on record here.

For one test, the target named is T1, COX-2 (Homo sapiens, UniProt P35354).
T1 sequence (P35354 18-604): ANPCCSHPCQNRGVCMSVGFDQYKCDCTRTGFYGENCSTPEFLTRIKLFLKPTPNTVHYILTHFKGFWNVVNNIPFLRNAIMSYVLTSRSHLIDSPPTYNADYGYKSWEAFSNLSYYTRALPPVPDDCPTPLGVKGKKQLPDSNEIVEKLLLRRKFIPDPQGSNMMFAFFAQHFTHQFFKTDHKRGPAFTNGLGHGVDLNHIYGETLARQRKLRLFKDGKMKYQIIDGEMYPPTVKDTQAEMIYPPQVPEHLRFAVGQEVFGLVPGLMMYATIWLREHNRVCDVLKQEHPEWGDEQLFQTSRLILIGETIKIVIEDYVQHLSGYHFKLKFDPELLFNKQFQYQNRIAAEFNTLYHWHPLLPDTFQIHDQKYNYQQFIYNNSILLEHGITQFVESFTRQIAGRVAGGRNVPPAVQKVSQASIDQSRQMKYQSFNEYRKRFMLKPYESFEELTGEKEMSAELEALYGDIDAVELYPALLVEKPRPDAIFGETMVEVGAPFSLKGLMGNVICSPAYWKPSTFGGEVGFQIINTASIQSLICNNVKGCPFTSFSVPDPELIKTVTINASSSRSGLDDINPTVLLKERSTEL
The experiment in a line: Human whole blood assay, COX-2 (LPS-induced PGE2 production). The class given is cell-based. To be noted: Cox-1 U937 IC50 divided by Cox-2 Whole Blood IC50. The source says: As well, platelets in whole blood contain a large amount of the COX-1 enzyme. Immediately following blood clotting, platelets are activated through a thrombin-mediated mechanism. […] Thus, the effect of test compounds on TxB2 levels following blood clotting can be examined and used as an index for COX-1 activity. Therefore, the degree of selectivity by the test compound can be determined by measuring the levels of PGE2 after LPS induction (COX-2) and TxB2 following blood clotting (COX-1) in the same assay. Fresh blood is collected in heparinized tubes by venipuncture from both male and female volunteers. The subjects have no apparent inflammatory conditions and have not taken any NSAIDs for at least 7 days prior to blood collection. […] At the end of the incubation, the blood is centrifuged at 12,000 x g for 5 minutes to obtain plasma. A 100µL aliquot of plasma is mixed with 400µL of methanol for protein precipitation. The supernatant is obtained and is assayed for PGE2 using a radioimmunoassay kit (Amersham, RPA#530) after conversion of PGE2 to its methyl oximate derivative according to the manufacturer's procedure.

A further test addresses T2, COX-1 (Homo sapiens, UniProt P23219).
T2 construct: endogenous in cells; host or cells: U937 (human) cells; 100,000 x g microsomal fraction
Description: Assay of COX-1 activity from U937 cell microsomes. Format: biochemical. The following applies: U937 cells, PGE2 synthesis in presence of AA. How it is done: Compounds are tested as inhibitors of cyclooxygenase activity in whole cell cyclooxygenase assays. […] Cells used for these assays are human osteosarcoma 143 cells (which specifically express COX-2) and human U-937 cells (which specifically express COX-1). […] U 937 cells are pelleted by centrifugation at 500 x g for 5 min and washed once with phosphate-buffered saline and repelleted. Cells are resuspended in homogenization buffer consisting of 0.1 M Tris-HCl, pH 7.4, 10 mM EDTA, 2 µg/ml leupeptin, 2 µg/ml soybean trypsin inhibitor, 2 µg/ml aprotinin and 1 mM phenyl methyl sulfonyl fluoride. […] Assays are performed in duplicate in a final volume of 250 µl. Initially, 5 µl of DMSO vehicle or drug in DMSO are added to 20 µl of 0.1 M Tris-HCl buffer, pH 7.4 containing 10 mM EDTA in wells of a 96-deepwell polypropylene titre plate. 200 µl of the microsomal preparation are then added and pre-incubated for 15 min at room temperature before addition of 25 µl of […] arachidonic acid in […] Tris-HCl and 10 mM EDTA, pH 7.4. Samples are incubated for 40 min at room temperature and the reaction is stopped by the addition of 25 µl of 1 N HCl. Samples are neutralized with 25 µl of 1 N NaOH prior to quantitation of PGE2 content by radioimmunoassay (Dupont-NEN or Amersham assay kits). […]

For the next test, the system named is Rat Paw Edema. The experiment in a line: Rat paw edema assay (carrageenan). The class given is in vivo. The following applies: male Sprague-Dawley rats, po 1 hr before carrageenan, paw volume 3 hr later; for ED50: Rattus norvegicus. Here is the method:
Male Sprague-Dawley rats (150-200 g) are fasted overnight and are given, po, either vehicle (1% methocel or 5% Tween 80) or a test compound. One hr later, a line is drawn using a permanent marker at the level above the ankle in one hind paw to define the area of the paw to be monitored. The paw volume (V0) is measured using a plethysmometer (Ugo-Basile, Italy) based on the principle of water displacement. The animals are then injected subplantarly with 50 µl of 1% carrageenan solution in saline (FMC Corp, Maine) into the paw using an insulin syringe with a 25-gauge needle (i.e. 500 µg carrageenan per paw). Three hr later, the paw volume (V3) is measured and the increases in paw volume (V3 - VO) are calculated. The animals are sacrificed by CO2 asphyxiation and the absence or presence of stomach lesions scored. Data is compared with the vehicle-control values and percent inhibition calculated. All treatment groups are coded to eliminate observer bias.
(In general: Carrageenan injected into the paw causes an acute inflammation.)

T2 sequence (P23219 24-599): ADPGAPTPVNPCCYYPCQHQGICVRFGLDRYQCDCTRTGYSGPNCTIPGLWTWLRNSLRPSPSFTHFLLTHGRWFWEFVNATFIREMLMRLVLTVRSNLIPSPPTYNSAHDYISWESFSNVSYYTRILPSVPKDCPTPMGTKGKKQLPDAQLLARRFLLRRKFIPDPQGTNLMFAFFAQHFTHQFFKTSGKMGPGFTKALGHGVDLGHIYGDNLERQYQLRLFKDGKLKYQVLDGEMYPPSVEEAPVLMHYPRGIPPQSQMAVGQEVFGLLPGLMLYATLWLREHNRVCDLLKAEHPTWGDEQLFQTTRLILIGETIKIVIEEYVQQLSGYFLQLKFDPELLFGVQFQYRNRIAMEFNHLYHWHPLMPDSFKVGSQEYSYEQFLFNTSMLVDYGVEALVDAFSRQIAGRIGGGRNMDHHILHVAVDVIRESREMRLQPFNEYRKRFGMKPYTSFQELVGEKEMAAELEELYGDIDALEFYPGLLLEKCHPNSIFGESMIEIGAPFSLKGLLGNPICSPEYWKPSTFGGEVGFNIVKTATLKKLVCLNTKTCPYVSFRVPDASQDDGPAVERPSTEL

Consider `CS(=O)(=O)c1ccc(-c2cc(Br)cnc2-c2cccnc2)cc1` [Example 32], for which the “Selectivity Ratio” value on COX-2 is more than 8.3. For the compound `CS(=O)(=O)c1ccc(-c2cccnc2-c2ccccc2)cc1` [Aa, reference compound], at COX-1, the IC50 – broadly, the concentration at which inhibition is half-maximal – is more than 10 µM. The “Rat Paw Edema (ED50, mg/kg)” value in the test on Rat Paw Edema is more than 10 mg/kg. As to `CS(=O)(=O)c1ccc(-c2cc(C(F)(F)F)cnc2-c2cccnc2)cc1` [Example 7, 3-(4-Methylsulfonyl)phenyl-2-(3-pyridinyl)-5-trifluoromethylpyridine], the ED50 (as a rule, the dose that gives a 50% effect, or the effect in half of the subjects) in the test on Rat Paw Edema stood at 1.7 mg/kg. Turning to `CS(=O)(=O)c1ccc(-c2cccnc2-c2ccc(F)cc2)cc1` [Ab, reference compound], the “Selectivity Ratio” value on COX-2 stood at 0.45.

Turning to `Cc1ccc(-c2ncc(Cl)cc2-c2ccc(S(C)(=O)=O)cc2)cn1` [Example 23, 5-Chloro-3-(4-methylsulfonyl)phenyl-2-(2-methyl-5-pyridinyl)pyridine], in the test with Rat Paw Edema, the ED50 was 0.6 mg/kg.
